Data set [1] can be described thus: In-office laser tooth whitening, desensitizer applied post treatment: tooth sensitivity. Type of data set: in vivo, human. The settings on record: for duration of tooth sensitivity: confirmed by follow up phone calls; for subjects experiencing tooth sensitivity after application of the desensitizer: 5 subjects per group. The text has this:
In-office laser tooth whitening procedure using Biolase EZ lase, 7W diode laser, and the LaserWhite *20 whitening gel kit.
A total of 15 candidates were selected and screened (for the presence of active decay, faulty restorations, cervical abrasion and attrition, enamel cracks) for the whitening procedure.
The arch has been divided in 4 quadrants, K1 (upper right), K2 (upper left), K3 (lower left), K4 (lower right).
The amount of 400 Jules has been applied per quadrant per application, in two separate applications. (total of 800 Jules per quadrant).
The candidates were assigned to 3 groups.
Group 1 is considered the control (C1), receiving desensitizer (post treatment) containing potassium nitrate.
Group 2, a second control group (C2), received as desensitizer (post treatment) stannous fluoride.
Group 3 (C3) received as desensitizer sodium pyruvate 99% in crystalline form. (applied over the gingival, gingival margin and DEJ).

Data set [2] concerns oxidative stress. The settings on record: cited from earlier work.
Data set [3] has as its system human and bovine endothelial cells. Particulars: cited from earlier work.
Data set [4] concerns isolated cardiomyocytes. Particulars: 1-10 millimolar; cited from earlier work.
Data set [5] has as its system isolated liver mitochondria. The settings on record: 1 mM pyruvate; cited from earlier work.
The conditions of data set [6]: cardioplegia; cited from earlier work.
For data set [7] the following is noted: cited from earlier work.
For data set [8], the system named is mammalian cellular systems. Particulars: applied exogenously in concentrations up to about 10 mM, short term studies; cited from earlier work.
The conditions of data set [9]: intracoronary; cited from earlier work.
The conditions of data set [10]: R. Bünger et al., unpublished observations; cited from earlier work.
Data set [11] can be described thus: Gingival lesions after tooth whitening, treated only with sodium pyruvate. It counts as in vivo, human. An excerpt:
In addition, overall 6 patients presented with gingival lesions, manifested by burning sensation on the gingival margin, and visually expressed by white areas on the gingival margin.

Consider four compounds from patent publication US10226409B2, “Pyruvate and related α-keto carboxylates as novel adjuvants in the treatment of post tooth whitening sensitivity and the tissue protective effect of pyruvate on the oral soft tissue” (priority 2016, dated 2019).

Structures are written as SMILES.

As to `O=[N+]([O-])[O-].[K+]` [potassium nitrate], the “duration of tooth sensitivity” value in data set [1] was “up to 24 hours”. Moreover, the “subjects experiencing tooth sensitivity after application of the desensitizer” value in data set [1] (end of whitening procedure) was 3 out of 5.

`CC(=O)C(=O)O` [pyruvate]: in [2], the “pyruvate level of optimum efficacy” value was 2 to 5 mM and the “pyruvate level required for beneficial effects” value was not below 0.5 mM. Also, in data set [3] (30 min pulse of 0.5 mM H2O2), the bc1-2/bax ratio entry is listed as “increasing the bc1-2/bax ratio”; the cellular glutathione pool result is “stabilizing the cellular glutathione pool”; the “cellular viability and survival” value was “dose-dependently enhanced cellular viability and survival”. Moreover, in data set [3] (H2O2-treated endothelial cells), the “phosphorylated p38 mitogen activated kinase” value is recorded as “prevented the accumulation of phosphorylated p38 mitogen activated kinase” and the “phosphorylation of ERK1/2” value is “transiently increased phosphorylation of ERK1/2”. Also, in [4], the calcium transients entry is “improves the calcium transients”; the cytotoxicity result was “without apparent cytotoxicity”; the “mitochondrial stability and mitochondrial Δϕ” value is “increases mitochondrial stability and mitochondrial Δϕ”. In data set [5], the “dissociation of cytochrome C” value is “prevented the dissociation of cytochrome C”, the “expression of antiapoptotic bc1-2” value is listed as “enhanced expression of antiapoptotic bc1-2” and the mitochondrial respiration result is given as “stabilized respiration”. Moreover, in data set [6], the mortality and morbidity entry was “reduced mortality and morbidity”. The “rate constant of scavenging of peroxynitrite” value in data set [7] (pH 7.4, 37° C.) was 88 to 100 mol⁻¹ s⁻¹. Further, the “reaction with peroxynitrite faster than with H2O2” value in data set [7] (physiological pyruvate anion) is “about 40 times”. In [7] (pyruvate decarboxylates to acetate), the “speed of reaction with peroxynitrite relative to that with H2O2” value is “about one order of magnitude faster”. Further, in [8], the cytotoxicity result was “virtually no or little cytotoxicity”. In data set [9], the efficacy result is on record as “beneficial efficacy” and the toxicity result is “no obvious toxicity”.

Consider `[F][Sn][F]` [stannous fluoride], for which the “duration of tooth sensitivity” value in data set [1] is “over 24 hours”. Also, the “members of the group experiencing tooth sensitivity” value in [1] (end of whitening procedure) is given as 100%.

As for `[13CH3][13C](=O)C(=O)[O-].[Na+]` [sodium pyruvate, α-Ketopropionic acid-2,3-13C2 sodium salt], in data set [10], the stability entry was “relative stability” and the water solubility result is “high water solubility”. The “duration of tooth sensitivity” value in data set [1] is not above 24 h. The “subjects experiencing tooth sensitivity after application of the desensitizer” value in data set [1] (end of whitening procedure) was 1 of 5. Further, the “burning sensation on the gingival margin” value in data set [11] (6 patients with gingival lesions, treated only with sodium pyruvate) is “immediate relieve of the burning sensation”. Moreover, in [11] (previously discolored (white) site on the gingival margin), the “visual inspection of the gingiva” value was “normal appearance of the gingiva”.
